# Results: US10391166B2, “Short oligonucleotides as vaccine adjuvants and therapeutic agents” (priority 2013, dated 2019)
# “Also recorded” adds a separate entry of the source.
# What was measured:
# RIG-I = target: T1, RIG-I (Homo sapiens, UniProt O95786); test: IRF3-luciferase assay in HEK 293 cells transfected with RIGI; type: cell-based; conditions: 100 or 500 nM; 8 h or 16 h incubation
# T1 construct: expressed in transfected cells; host or cells: HEK 293
# T1 sequence (O95786 1-925): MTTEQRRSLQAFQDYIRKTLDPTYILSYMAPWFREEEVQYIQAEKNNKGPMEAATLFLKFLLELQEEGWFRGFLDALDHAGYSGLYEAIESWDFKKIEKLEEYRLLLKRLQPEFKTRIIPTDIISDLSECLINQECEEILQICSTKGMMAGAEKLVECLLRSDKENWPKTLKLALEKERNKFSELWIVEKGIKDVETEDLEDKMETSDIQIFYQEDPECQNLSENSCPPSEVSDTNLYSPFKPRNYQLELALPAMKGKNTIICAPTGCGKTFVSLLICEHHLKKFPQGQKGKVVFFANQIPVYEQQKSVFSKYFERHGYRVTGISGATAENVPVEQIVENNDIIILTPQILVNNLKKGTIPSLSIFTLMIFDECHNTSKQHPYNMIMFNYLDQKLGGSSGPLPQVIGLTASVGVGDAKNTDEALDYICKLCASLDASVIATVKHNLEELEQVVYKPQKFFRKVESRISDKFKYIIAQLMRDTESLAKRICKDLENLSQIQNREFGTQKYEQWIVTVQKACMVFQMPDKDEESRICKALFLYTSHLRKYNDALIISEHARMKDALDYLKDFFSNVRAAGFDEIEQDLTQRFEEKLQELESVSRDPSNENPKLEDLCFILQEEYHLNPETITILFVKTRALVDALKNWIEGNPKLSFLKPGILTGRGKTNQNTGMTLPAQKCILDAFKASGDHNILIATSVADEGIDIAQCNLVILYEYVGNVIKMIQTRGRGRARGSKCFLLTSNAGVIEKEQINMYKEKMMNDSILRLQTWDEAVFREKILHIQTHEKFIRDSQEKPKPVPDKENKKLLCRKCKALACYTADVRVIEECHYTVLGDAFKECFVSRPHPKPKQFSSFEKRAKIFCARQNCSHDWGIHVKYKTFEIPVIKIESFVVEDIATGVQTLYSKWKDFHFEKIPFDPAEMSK
# Experimental: HEK 293 cells were transfected with RIGI, pcDNA and IRF3-luciferase. The cells were then incubated with SB 44 (100 or 500 nM). Following 8 h or 16 h incubation, Luciferase activity was measured as described previously. The Luciferase assay results are presented as mean±S.D. from three independent experiments.
# interferon-β (IFN-β) = test: IFN-β production from human lung epithelial A549 cells; type: cell-based
# MHC-II = type: cell-based, mouse
# RIG-I and NOD2 = type: cell-based; conditions: receptor-deficient cells, exogenous RIG-I and NOD2
# [1] = human liver S9 fractions
# Experimental: SB 44 (10 μM) was incubated with a mix containing S9 fraction (pooled from human) (1 mg/ml), NADPH (1.3 mM) UDPGA (5 mM), Alamethicin (10 μg/ml) in 1 ml of 1×PBS buffer. S-(5′-adenosyl)-L-methionine iodide (0.1 mM), adenosine 3′-phosphate 5′-phosphosulfate lithium salt hydrate (0.1 mM) and acetyl CoA (1 mM). The metabolite samples were evaluated by HPLC and LC/MS analysis.
# [2] = Bioreversibility of SB 44 in serum; type: in vitro ADME
# Excerpt: Similar to the serum-mediated conversion of SB 44 to SB 40, in the case of microsomes liver esterases appear to be the major metabolizing enzymes involved in the hydrolytic conversion of SB 44 to SB 40. […] The facile bioconversion of SB 44 to SB 40 in liver and plasma is also consistent with broad substrate specificity of the ubiquitous esterase enzymes.
# [3] = system: Madin-Darby bovine kidney (MDBK); test: MTT cytotoxicity assay, MDBK cells; type: cell-based; conditions: 24-hour incubation
# Excerpt: (§1) SDS was used as a positive cytotoxic control.
# [4] = system: HFF (human foreskin fibroblasts); test: MTT cytotoxicity assay, HFF cells; type: cell-based; conditions: 24-hour incubation
# Excerpt: as §1
compound,measurement,setting,value
COC1C(OP(=O)(OCC2OC(n3cnc4c(N)ncnc43)CC2O)SCOC(=O)OC(C)C)C(CO)OC1n1ccc(=O)[nH]c1=O (mixture of isomers) [SB 44],IRF3 induction following activation of RIG-I,RIG-I,IRF3 induction following activation of RIG-I
same,production of IFN-β,interferon-β (IFN-β),induces production of interferon-β
same,surface expression of MHC-II,MHC-II,increase MHC-II in MΦs; also recorded: enhances surface expression of MHC-II
same,enhancement of ISG-56 expression over that induced by PolyI-PolyC,RIG-I and NOD2,2 fold
same,conversion of prodrug to SB 40,[1],stereospecific conversion of SB 44 to the dinucleotide SB 40
same,phase II conjugative reactions,[1],no apparent evidence of any phase II conjugative reactions
same,desulfurized product corresponding to SB 40,[1]; LC/MS,< 5%
same,conversion rates of the individual isomers,[2],almost equal rates
same,CC50,[3],> 1000 µM
same,CC50,[4],> 1000 µM
